Values quoted from earlier work as cited in patent US10130578B2, “Topical delivery of skin compositions having low pH” (Johnson & Johnson Consumer Inc., priority 2015, dated 2018).

In the case of Hyaluronic acid, the pKa is listed as 2.9.
